The record followed here is article PMC9292003, “A β‐ketoacyl carrier protein reductase confers heat tolerance via the regulation of fatty acid biosynthesis and stress signaling in rice” (The New Phytologist, 2021).

The assay addresses T1, HTS1 (GST-HTS1) (Oryza sativa, UniProt Q7XMI8).
T1 construct: E. coli BL21; vector printed as pET30a
Kind of assay: NADPH absorption at. It counts as biochemical. As to conditions: reductase activity; co-substrate printed as NADH in results, NADPH in methods.

In the case of `CC(=O)CC(=O)SCCNC(=O)CCNC(=O)[C@H](O)C(C)(C)COP(=O)(O)OP(=O)(O)OC[C@H]1O[C@@H](n2cnc3c(N)ncnc32)[C@H](O)[C@@H]1OP(=O)(O)O` [acetoacetyl-CoA], the “NADPH absorption at 340 nm” value was “High catalytic activity was detected in GST‐HTS1 after introducing acetoacetyl‐CoA and NADH”.
